Measured values taken from patent publication US6913760B2, “Drug delivery composition” (New England Medical Hospitals, Inc., priority 2001, dated 2005).
Values joined by “and” are separate entries in the source; they are usually repeats but may differ in a detail not shown here. Equal values may be shown once. Marks after values point to notes of the source that are not given here.

Experiments:
[1] = In vitro release of BP or HM from PLGA 50:50 rods; assay type: physicochemical; conditions: BP rods of first batch
[2] = tested on: rats with sciatic nerve ligation; test: Paw withdrawal threshold after sciatic nerve ligation, rods placed parallel to the nerve; assay type: in vivo, Sprague-Dawley rats
[3] = tested on: rats; test: Tail flick test after intrathecal implantation of PLGA rods; assay type: in vivo; conditions: for % MPE, tail flick test, Average: average of 6 rats
[4] = tested on: rats; test: Paw withdrawal test after intrathecal implantation of PLGA rods; assay type: in vivo; conditions: for % MPE, paw withdrawal test, Average: average of 6 rats
[5] = Drug release studies of PLGA 85:15 rods (Example 2); assay type: physicochemical
[6] = tested on: rats; test: Anesthesia after intrathecal polymeric implants, all sites tested (Example 2); assay type: in vivo; conditions: intrathecal rods
[7] = rat
[8] = trapezoidal method, individual rats, listed as BP
[9] = trapezoidal method, mean of 6 rats

relative rate of drug release [5]: released faster than the other two drugs
release order [5]: almost zero order
release from rods retrieved after termination of in vivo test [7]: suppressed release
SMILES: CCCCN1CCCCC1C(=O)Nc1c(C)cccc1C (stereo not shown) [Bupivacaine, bupivacaine]
in vitro release behavior [1]: zero order release pattern with two different rates
analgesia, paw withdrawal threshold (difference score) ([2]; dose doubled (4 rods/rat)): possible to achieve the analgesic effect
analgesia, paw withdrawal threshold (difference score) ([2]; first part, single dose (2 rods/rat)): insufficient to provide analgesia
% MPE, tail flick test, Average ([3]; 2h): 40.52 % MPE
% MPE, tail flick test ([3]; 2h after intrathecal implantation of PLGA rod, individual rats): 31.19 % MPE and 41.43 % MPE and 63.08 % MPE and 30.89 % MPE and 23.85 % MPE and 52.69 % MPE
% MPE, tail flick test, Average ([3]; 4h): 39.06 % MPE
% MPE, tail flick test ([3]; 4h, individual rats): 24.2268 % MPE and 38.87 % MPE and 40.26 % MPE and 44.7644 % MPE and 11.79 % MPE and 74.46 % MPE
Area under the curve (AUC), tail flick test ([3]; % MPE versus time in days, trapezoidal method, individual rats, listed as BP): 130.77 and 82.59 and 112.23 and 137.33 and 90.32 and 72.88
Area under the curve (AUC), tail flick test, Mean ([3]; % MPE versus time in days, trapezoidal method, mean of 6 rats): 104.35 * #
% MPE, tail flick test, Average ([3]; D1): 23.1672 % MPE
% MPE, tail flick test ([3]; D1, individual rats): 14.95 % MPE and 27.11 % MPE and 31.79 % MPE and 25.65 % MPE and 11.54 % MPE and 27.96 % MPE
% MPE, tail flick test, Average ([3]; D2): 22.55 % MPE
% MPE, tail flick test ([3]; D2, individual rats): 13.4 % MPE and 32.23 % MPE and 40.51 % MPE and 16.49 % MPE and 13.33 % MPE and 19.35 % MPE
% MPE, tail flick test, Average ([3]; D3): 19.97 % MPE
% MPE, tail flick test ([3]; D3, individual rats): 14.95 % MPE and 22.51 % MPE and 26.92 % MPE and 13.87 % MPE and 18.46 % MPE and 23.12 % MPE
% MPE, tail flick test, Average ([3]; D4): 10.7 % MPE
% MPE, tail flick test ([3]; D4, individual rats): 14.43 % MPE and 14.0665 % MPE and 7.949 % MPE and 5.236 % MPE and 12.5641 % MPE and 9.946 % MPE
% MPE, tail flick test, Average ([3]; D5): 8.394 % MPE
% MPE, tail flick test ([3]; D5, individual rats): 9.536 % MPE and 4.092 % MPE and 7.692 % MPE and 5.236 % MPE and 7.949 % MPE and 15.86 % MPE
% MPE, tail flick test, Average ([3]; D6): 5.511 % MPE
% MPE, tail flick test ([3]; D6, individual rats): 8.247 % MPE and 0.7673 % MPE and 7.949 % MPE and 8.115 % MPE and 7.179 % MPE and 0.8065 % MPE
% MPE, paw withdrawal test, Average ([4]; 2h, L): 26.10 % MPE
% MPE, paw withdrawal test, Average ([4]; 2h, R): 27.87 % MPE
% MPE, paw withdrawal test ([4]; 2h, left (L) hind paw, individual rats): 24.92 % MPE and 36.09 % MPE and 19.26 % MPE and 23.67 % MPE and 15.95 % MPE and 36.73 % MPE
% MPE, paw withdrawal test ([4]; 2h, right (R) hind paw, individual rats): 19.06 % MPE and 39.35 % MPE and 20.77 % MPE and 27 % MPE and 22.43 % MPE and 38.63 % MPE
% MPE, paw withdrawal test, Average ([4]; 4h, L): 26.48 % MPE
% MPE, paw withdrawal test ([4]; 4h, L, individual rats): 27.69 % MPE and 55.64 % MPE and 11.48 % MPE and 14.67 % MPE and 37.74 % MPE and 11.64 % MPE
% MPE, paw withdrawal test, Average ([4]; 4h, R): 29.68 % MPE
% MPE, paw withdrawal test ([4]; 4h, R, individual rats): 38.12 % MPE and 58.84 % MPE and 13.08 % MPE and 12 % MPE and 44.11 % MPE and 11.91 % MPE
% MPE, paw withdrawal test, Average ([4]; D1, L): 23.61 % MPE
% MPE, paw withdrawal test ([4]; D1, L, individual rats): 33.85 % MPE and 35.71 % MPE and 11.11 % MPE and 39 % MPE and 13.62 % MPE and 8.36 % MPE
% MPE, paw withdrawal test, Average ([4]; D1, R): 22.68 % MPE
% MPE, paw withdrawal test ([4]; D1, R, individual rats): 30.62 % MPE and 43.32 % MPE and 11.54 % MPE and 32 % MPE and 11.03 % MPE and 7.58 % MPE
% MPE, paw withdrawal test, Average ([4]; D2, L): 26.91 % MPE
% MPE, paw withdrawal test ([4]; D2, L, individual rats): 28.92 % MPE and 42.86 % MPE and 18.15 % MPE and 29 % MPE and 33.07 % MPE and 9.45 % MPE
% MPE, paw withdrawal test, Average ([4]; D2, R): 27.13 % MPE
% MPE, paw withdrawal test ([4]; D2, R, individual rats): 28.12 % MPE and 44.76 % MPE and 15.77 % MPE and 28.33 % MPE and 34.60 % MPE and 11.19 % MPE
% MPE, paw withdrawal test, Average ([4]; D3, L): 15.06 % MPE
% MPE, paw withdrawal test ([4]; D3, L, individual rats): 20.37 % MPE and 7.33 % MPE and 9.73 % MPE and 5.09 % MPE and 16.62 % MPE and 31.20 % MPE
% MPE, paw withdrawal test, Average ([4]; D3, R): 15.70 % MPE
% MPE, paw withdrawal test ([4]; D3, R, individual rats): 17.31 % MPE and 4.67 % MPE and 12.55 % MPE and 0.36 % MPE and 24.69 % MPE and 34.66 % MPE
% MPE, paw withdrawal test, Average ([4]; D4, L): 9.72 % MPE
% MPE, paw withdrawal test ([4]; D4, L, individual rats): 7.78 % MPE and 13.67 % MPE and 1.55 % MPE and 0 % MPE and 25.54 % MPE and 9.77 % MPE
% MPE, paw withdrawal test, Average ([4]; D4, R): 9.56 % MPE
% MPE, paw withdrawal test ([4]; D4, R, individual rats): 8.46 % MPE and 15.67 % MPE and 0.76 % MPE and 1.08 % MPE and 20.94 % MPE and 10.47 % MPE
% MPE, paw withdrawal test, Average ([4]; D5, L): 6.49 % MPE
% MPE, paw withdrawal test ([4]; D5, L, individual rats): 0.74 % MPE and 1 % MPE and 1.94 % MPE and 1.45 % MPE and 18.77 % MPE and 15.04 % MPE
% MPE, paw withdrawal test, Average ([4]; D5, R): 6.55 % MPE
% MPE, paw withdrawal test ([4]; D5, R, individual rats): 0.38 % MPE and 3 % MPE and 2.66 % MPE and 1.44 % MPE and 18.44 % MPE and 13.36 % MPE
% MPE, paw withdrawal test, Average ([4]; D6, L): 4.88 % MPE
% MPE, paw withdrawal test ([4]; D6, L, individual rats): 0.37 % MPE and 7 % MPE and 0.39 % MPE and −1.82 % MPE and 10.15 % MPE and 13.16 % MPE
% MPE, paw withdrawal test, Average ([4]; D6, R): 7.35 % MPE
% MPE, paw withdrawal test ([4]; D6, R, individual rats): 0.77 % MPE and 11 % MPE and 4.94 % MPE and 2.89 % MPE and 9.69 % MPE and 14.80 % MPE
Area under the curve (AUC), paw withdrawal test (left side) [4, 8]: 165.34 and 63.50 and 98.08 and 77.02 and 29.59 and 139.80
Area under the curve (AUC), paw withdrawal test (right side) [4, 8]: 179.14 and 59.77 and 93.21 and 84.38 and 29.51 and 143.50
Area under the curve (AUC), paw withdrawal test (left side), Mean [4, 9]: 95.55 * #
Area under the curve (AUC), paw withdrawal test (right side), Mean [4, 9]: 98.25 * #
duration of anesthesia/analgesia [6]: at least 4 days
